This is an account of results in PubChem BioAssay AID743184 (Broad Institute, 2013).

Calls of active or inactive are those of the source. The rule behind the calls is not given here.

This assay can be described thus: M. tuberculosis BioA enzyme inhibitors, biochemical, single concentration, dry powder (AID 743184). The settings on record: at 9.99 µM; stronger effect = higher value.

For `O=C(O)CC/C(=C\c1ccccc1[N+](=O)[O-])c1nc2ccccc2s1`, the activity score is -1.5% (inactive).

Consider `O=C(Nc1ccc2snnc2c1)N1CCCCC1`, for which the activity score was -5.56% (inactive).

Turning to `CC(=O)c1ccc(N2CCN(C(=O)c3ccc(F)cc3)CC2)cc1`, the activity score is -3.75% (inactive).

With `CC(=O)c1ccc(N2CCN(C(=O)c3ccc4ncsc4c3)CC2)cc1`, the activity score was -4.47% (inactive).

As for `COc1ccc(N2CCN(C(=O)c3ccc4c(c3)OCO4)CC2)cc1`, the activity score is -1.28% (inactive).

Take `O=C(c1ccc2c(c1)OCO2)N1CCN(c2ccc(F)cc2)CC1`: the activity score was -13.9% (inactive).

Take `Cc1ccccc1/C=C(\CCC(=O)O)c1nc2ccccc2s1`: the activity score was -6.51% (inactive).

Take `O=C(Nc1cccnc1)c1cnn2c(C(F)F)cc(C3CC3)nc12`: the activity score is -3.98% (inactive).

As for `CC(=O)c1ccc(N2CCN(C(=O)c3ccc4c(c3)OCCO4)CC2)cc1`, the activity score is -1.22% (inactive).

As for `CC(=O)c1ccc(N2CCN(C(=O)c3ccc(Cl)cc3)CC2)cc1`, the activity score is 5.46% (inactive).

Consider `O=C(Nc1ccc2[nH]ccc2c1)N1CCN(c2ccccc2)CC1`, for which the activity score is 29.5% (inactive).

For the compound `COC(=O)c1c(C(=O)OC)c(-c2cccc(F)c2)n2c1CS(=O)C2` (centres undefined), the activity score was -8.08% (inactive).

In the case of `Cc1ccc(/C=C(\CCC(=O)O)c2nc3ccccc3s2)cc1`, the activity score was -6% (inactive).

With `O=C(Nc1cccc(Cl)c1)N1CCN(c2ccccc2)CC1`, the activity score was 3.11% (inactive).

Turning to `O=C(COc1ccc2ccc(=O)oc2c1)N1CCN(c2ccc(F)cc2)CC1`, the activity score is 3.38% (inactive).

Take `Cc1nc2cc(NC(=O)N3CCN(c4ccccc4)CC3)ccc2o1`: the activity score was 4.18% (inactive).

As to `Cc1ccc(/C=C(\CCCC(=O)O)c2nc3ccccc3s2)cc1[N+](=O)[O-]`, the activity score is 1.05% (inactive).

Turning to `CC(=O)c1ccc(N2CCN(C(=O)c3ccc(C)cc3)CC2)cc1`, the activity score was -7.19% (inactive).

For the compound `O=C(Nc1cccc(F)c1)N1CCN(c2ccccc2)CC1`, the activity score is -3.46% (inactive).

Consider `CC(=O)c1ccc(N2CCN(C(=O)c3ccc(Br)cc3)CC2)c(F)c1`, for which the activity score is 7.7% (inactive).

Consider `O=C(Nc1ccc2snnc2c1)N1CCN(c2ccccc2)CC1`, for which the activity score is -7.17% (inactive).

With `Cc1ccc(/C=C(\CCC(=O)O)c2nc3ccccc3s2)cc1[N+](=O)[O-]`, the activity score was -15.2% (inactive).

As for `CCc1ccc(C(=O)N2CCN(Cc3ccc4c(c3)OCO4)CC2)cc1`, the activity score was 0.311% (inactive).

With `O=C(Nc1ccc(F)cc1)N1CCN(c2ccccc2)CC1`, the activity score is 5.21% (inactive).

With `COc1ccc(C(=O)N2CCN(c3ccc(C(C)=O)cc3)CC2)cc1`, the activity score was 20.7% (inactive).

Turning to `Cc1cccc(/C=C(\CCC(=O)O)c2nc3ccccc3s2)c1`, the activity score is 1.92% (inactive).

Turning to `CC(=O)c1ccc(N2CCN(C(=O)c3cccc(F)c3)CC2)cc1`, the activity score is -6.65% (inactive).

With `Cc1cc(C)n2nc(C(=O)Nc3cccnc3)nc2n1`, the activity score is 11.6% (inactive).

Take `Cc1ccc(-c2cc(C(F)(F)F)n3nc(C(=O)Nc4cccnc4)cc3n2)cc1`: the activity score is 8.78% (inactive).

Turning to `CC(=O)c1ccc(N2CCN(C(=O)c3cccnc3)CC2)cc1`, the activity score was -8.01% (inactive).

Regarding `Cc1ccc(/C=C(\CC(=O)O)c2nc3ccccc3s2)cc1[N+](=O)[O-]`, the activity score was -2.58% (inactive).

For `O=C(O)CC/C(=C\c1ccc([N+](=O)[O-])cc1)c1nc2ccccc2s1`, the activity score is 1.57% (inactive).

`Cc1ccc(NC(=O)N2CCN(c3ccccc3)CC2)cc1`: the activity score is 17.2% (inactive).

On to `O=C(Nc1ccccc1)N1CCN(c2ccccc2)CC1`, for which the activity score was -4.99% (inactive).

With `CC(C)(C)c1ccc(C(=O)N2CCN(c3ccc4c(c3)OCO4)CC2)cc1`, the activity score is -3.13% (inactive).

In the case of `COc1ccc(-c2cc(C(F)(F)F)n3nc(C(=O)Nc4cccnc4)cc3n2)cc1`, the activity score was -9.52% (inactive).

In the case of `O=C(Nc1cccnc1)c1cc2nc(-c3cccs3)cc(C(F)(F)F)n2n1`, the activity score was 6.22% (inactive).

Regarding `COc1cccc(NC(=O)N2CCN(c3ccccc3)CC2)c1`, the activity score is 2.06% (inactive).

In the case of `O=C(Nc1ccncc1)c1cc2nc(C3CC3)cc(C(F)F)n2n1`, the activity score is -0.117% (inactive).

As for `O=C(Nc1cccnc1)N1CCN(c2ccccc2)CC1`, the activity score is -4.1% (inactive).

Take `COc1cccc(NC(=O)CCC2CCN(C(=O)c3ccc(C(C)=O)s3)CC2)c1`: the activity score was 1.4% (inactive).

As for `O=C(Nc1ccc(Cl)cc1)c1cc2nc(C3CC3)cc(C(F)(F)F)n2n1`, the activity score was -6.7% (inactive).

Regarding `CC(=O)c1ccc(N2CCN(Cc3ccc4c(c3)OCO4)CC2)cc1`, the activity score was -2% (inactive).

Take `CC(=O)c1ccc(N2CCN(C(=O)c3cccc(Cl)c3)CC2)cc1`: the activity score was -11.7% (inactive).

Take `CC(=O)c1ccc(N2CCN(C(=O)c3ccccc3)CC2)cc1`: the activity score was -3.73% (inactive).

Take `O=C(Nc1cccnc1)c1cnn2c(C(F)(F)F)cc(-c3ccccc3)nc12`: the activity score was 11.8% (inactive).

On to `O=C(c1ccc2c(c1)OCO2)N1CCN(Cc2ccccc2)CC1`, for which the activity score was -10.2% (inactive).

On to `O=C(Nc1ccc(Cl)c(-c2nc3ccccc3[nH]2)c1)c1cccnc1`, for which the activity score is 5.48% (inactive).

`CCc1ccc(N2CCN(C(=O)c3ccc4c(c3)OCO4)CC2)cc1`: the activity score is -0.719% (inactive).

As for `O=C(c1ccc2c(c1)OCO2)N1CCN(c2ccccc2)CC1`, the activity score is 0.078% (inactive).

As to `Cc1nc2ccc(NC(=O)N3CCN(c4ccccc4)CC3)cc2s1`, the activity score is -0.913% (inactive).

In the case of `COc1ccc(NC(=O)N2CCN(c3ccccc3)CC2)cc1`, the activity score was -12.2% (inactive).

Consider `O=C(c1ccc2c(c1)OCO2)N1CCN(c2ccc(Cl)cc2)CC1`, for which the activity score is -0.291% (inactive).

For the compound `Cc1cc(C)n2nc(C(=O)Nc3cccnc3)cc2n1`, the activity score is 27.1% (inactive).
